In paper PMC8955307, “Nucleobase-Derived Nitrones: Synthesis and Antioxidant and Neuroprotective Activities in an In Vitro Model of Ischemia–Reperfusion” (International Journal of Molecular Sciences, 2022):

Assays:
[1] = test system: SH-SY5Y human neuroblastoma cells; experiment: Anti-necrotic effect: LDH release after OGD (4 h) and 24 h OGR (IR); assay type: cell-based; conditions: Homo sapiens, OGD 4 h + 24 h OGR (IR); for IC50: compounds 0.1 μM to 1 mM, read-out: LDH Release Inhibition IC50 ±SEM; for Emax: read-out: Maximal Inhibition Mean±SEM (LDH release)
Description: (§1) To induce experimental ischemia, and the sub-consequent cellular damage, the neuroblastoma cultures underwent OGD for 3–4 h, maintained in a glucose-free Dulbecco’s medium inside an anaerobic chamber in the presence of a gas mixture of 95% N2/5% CO2 and humidified at 37 °C at a constant pressure of 0.15 bar. After the OGD period (4 h), medium was substituted by oxygenated 10% FCS-containing medium, and cells were incubated in conditions of normoxia for 24 h to recovery (R24h). The compounds used in the neuroprotection studies: nitrones 9a–i, α-phenyl-N-tert-butyl nitrone (PBN) and N-acetyl-L-cysteine (NAC) (0.01 μM−1000 µM), were added at the beginning of R24h as described. Concurrently, controls in the absence of the OGD procedure were performed by maintaining these cells with Dulbecco’s medium including glucose for 3–4 h in an incubator in conditions of normoxia during the OGD period; thereafter, the medium was changed, and the cells (in the presence or absence of the different study compounds) were returned to the incubator for 24 h of recovery, as described. In addition, experiments including the same amounts of vehicle (final concentration < 1% dimethyl sulfoxide) were performed, serving as controls. The effects of nitrones 9a–g were analyzed three-five times independently using different culture batches, and each experiment was carried out in triplicate.
Anti-necrotic cell activity was evaluated by culturing SHSY5Y cells in 48-well dishes, in a density of 2 × 10^5 cells/well and treating them as controls or under the OGD-R24h procedure, adding the testing compounds at 0.01–1000 µM (see point 4.2.2.). Media of every well were collected in Eppendorf tubes properly labelled and stored at −20 °C until measurement (samples would be needed to measure extracellular NADH). Afterwards, each well was recharged with a 0.1 M Phosphate Buffer with 0.5% Triton X-100, pH 7.5, in order to scratch the cells from the bottom of the well. After a 13.000 rpm centrifugation, the soluble fractions are collected and labelled (samples would be essential to measure intracellular NADH). Finally, LDH activity was quantified as the degree of absorbance declined at 340, indicating the oxidation of NADH to NAD+ as described. Results are expressed as the LDH activity of the extracellular medium referred to the total LDH activity after cell lysis.

[2] = test system: human neuroblastoma SH-SY5Y cells; experiment: Superoxide radical production (DHE fluorescence) after OGD and 3 h OGR (IR); assay type: cell-based; conditions: Homo sapiens, OGD + 3 h OGR (IR); for EC50: compounds 0.1 to 1000 μM, read-out: Antioxidant Activity EC50 ± SEM (superoxide production); for Emax: read-out: Maximal Activity mean±SEM (antioxidant)
Description: A density of 2–2.5 × 10^5 SHSY5Y cells/well was used to seed in 48-well plates to quantify superioxide anion formation. Firstly, cultured cells were exposed to OGD treatment for 3–4 h or maintained in normoxic conditions (controls). Thereafter, medium was replaced with oxygenated Dulbecco’s: Ham’s F12 medium with glucose, 1% Antibiotic-Antimycotic, 1% Gentamicin and 10% FCS. Cells were incubated in the absence (controls) or presence of indicated concentrations of the compounds of study, at 37 °C for 3 h. […] For every condition, the linear regression of fluorescence data (expressed in arbitrary fluorescence units, AFU) was calculated, and the slopes (a) of the best fitting lines (y = ax) were considered as an index of superoxide production, as described previously.

[3] = target: T1, Soybean Lipoxygenase (SLOX) (Glycine max, UniProt P08170); experiment: In vitro inhibition of soybean lipoxygenase (UV absorbance-based enzyme assay); assay type: biochemical; conditions: soybean LOX, sodium linoleate substrate, pH 9
T1 sequence (P08170 1-839): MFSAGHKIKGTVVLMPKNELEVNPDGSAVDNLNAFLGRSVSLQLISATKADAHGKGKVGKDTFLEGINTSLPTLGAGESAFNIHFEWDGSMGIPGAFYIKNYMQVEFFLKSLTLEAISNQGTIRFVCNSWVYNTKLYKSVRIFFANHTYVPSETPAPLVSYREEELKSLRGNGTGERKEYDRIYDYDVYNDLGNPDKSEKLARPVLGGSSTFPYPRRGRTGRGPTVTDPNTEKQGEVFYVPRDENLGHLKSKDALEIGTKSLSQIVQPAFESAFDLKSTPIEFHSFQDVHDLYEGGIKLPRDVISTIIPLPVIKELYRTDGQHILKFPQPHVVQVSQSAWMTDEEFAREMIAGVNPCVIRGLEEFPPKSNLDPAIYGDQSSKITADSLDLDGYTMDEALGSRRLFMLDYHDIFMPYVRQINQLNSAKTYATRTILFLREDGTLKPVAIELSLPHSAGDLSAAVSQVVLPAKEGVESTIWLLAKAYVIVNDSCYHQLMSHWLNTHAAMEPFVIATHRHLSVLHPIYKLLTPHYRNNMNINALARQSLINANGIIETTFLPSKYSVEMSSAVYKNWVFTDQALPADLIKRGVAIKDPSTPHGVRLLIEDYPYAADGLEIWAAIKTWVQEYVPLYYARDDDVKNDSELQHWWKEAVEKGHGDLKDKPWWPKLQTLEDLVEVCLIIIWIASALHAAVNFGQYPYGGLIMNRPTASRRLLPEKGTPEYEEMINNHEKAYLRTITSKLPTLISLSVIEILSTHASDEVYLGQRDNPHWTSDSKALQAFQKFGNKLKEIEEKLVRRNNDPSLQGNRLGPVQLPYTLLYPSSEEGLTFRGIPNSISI
Description: The experimental conditions followed our previously reported protocol. Sodium linoleate was used as a substrate (0.1 mM) with 0.2 mL of the saline solution of SLOX (1/9 × 10^−4 w/v) in the Tris buffer pH 9.

[4] = Inhibition of lipid peroxidation (ILPO), AAPH protocol with sodium linoleate; conditions: tested at 100 µM
Description: The reactants consisting of 10 µL (16 mM) sodium linoleate, 10 µL of the tested nitrones in DMSO (final concentration 100 µM), 50 µL of AAPH ([…]) as a free radical initiator, 930 µL phosphate buffer pH 7.4 (0.05 M) at 37 °C under air, were mixed and the reaction’s result (as absorbance value) was recorded at 234 nm in comparison to PBN as a reference.

[5] = Reducing ability: interaction with DPPH; conditions: tested at 100 µM
[6] = Hydroxyl radical scavenging (competition with DMSO); conditions: tested at 100 µM
Description: The competition of the tested nitrones (100 µM) with DMSO (33 mM) in the phosphate buffer (50 mM), pH 7.4, was used. The hydroxyl radicals were generated by the Fe^3+/ascorbic acid system (EDTA 0.1 mM, Fe^3+ 167 µM, ascorbic acid 10 mM), and the samples were incubated at 37 °C/30 min. A 17% w/v solution of CCl3CO2H was used to stop the radical propagation. The percentage scavenging activity was compared to Trolox used as a reference.

[7] = ABTS radical cation decolorization assay; conditions: tested at 100 µM
Description: Approximately 10 µL of the tested compounds in DMSO (100 µM final concentration) were mixed with 200 µL of ABTS∙^+ (100 mM) and 790 µL absolute ethanol. The absorbance value was recorded 1 min after mixing at 734 nm and compared to Trolox.

[8] = test system: SH-SY5Y human neuroblastoma cells; experiment: Neuroprotection: cell viability (XTT metabolic activity) after OGD (4 h) followed by OGR (24 h) (IR); assay type: cell-based; conditions: Homo sapiens, OGD 4 h + OGR 24 h (IR); for Emax: 24 h, read-out: Maximal Activity mean±SEM (neuroprotection); for EC50: compounds 0.01 μM to 1 mM, read-out: Neuroprotection EC50 ± SEM
Description: Cultures of human neuroblastoma cells from line SH-SY5Y were performed in flasks containing Dulbecco’s: Ham’s F12, 1:1 [v/v] composed of 0.5 mM sodium pyruvate, 2.5 mM GlutaMAX™; GIBCO, Life Technologies, Madrid (Spain), 3.15 mg/mL glucose, 1% Antibiotic-Antimycotic (100 ui/mL penicillin, […] streptomycin, and 0.25 mg amphotericin B), 1% Gentamicin 15 mg/mL (Sigma-Aldrich, Madrid, Spain) and 10% Fetal Calf Serum (FCS) (Gibco; Life Technologies, Madrid, Spain) as as described. For each experiment, neuroblastoma cells were digested partially with 0.25% trypsin-EDTA and seeded in plates of 96 or 48 wells with a density of 0.5–1 or 2–2.5 × 10^5 cells/well, respectively, depending on the assay. At 80% confluence of the seeded cells, medium was renewed adding 0.1–1000 µM of the compounds tested.
as §1
(§2) Cell viability measurements were carried out in human neuroblastoma cells SHSY5Y using 96-well culture plates, containing about 0.5–1 × 10^5 cells/well, after the OGD-R24h or control treatment including 0.01–1000 µM of the different testing compounds (nitrones 9a–g, PBN, and NAC), utilizing the Cell Proliferation Kit II (XTT), Sigma Aldrich, Madrid, Spain, which determines the culture’s metabolic capacity, as described in [21, 22]. XTT solution (0.3 mg/mL final concentration) was added to the seeded cells, incubated for 2 h at 37 °C with 5% CO2 and 95% air (v/v), and a spectrophotometer reader (Biotek Power-Wave XS microplate-reader (BioTek Instruments, Madrid, Spain) was used to register the absorbance at 450 nm (reference 650 nm) of the soluble formazan product generated. 100% viability was set by control normoxic cells treated with medium only, and control cells were added 0.001–1% DMSO in every assay.

[9] = test system: human neuroblastoma SH-SY5Y cells; experiment: Basal neurotoxicity: cell viability under basal conditions; assay type: cell-based
Description: as §2

Structure (SMILES)	EC50 [2]	IC50 [3]	melting point	EC50 [8]	IC50 [1]	Emax [1]	Emax [2]	ILPO (%) [4]	DPPH (%) [5]	OH (%) scavenging [6]	ABTS+ (%) [7]	Emax [8]	Neurotoxic effects at basal level (cell viability) [9]
CC(Cc1ccc(O)c(O)c1)C(C)Cc1ccc(O)c(O)c1 (stereo not shown) [NDGA, Nordihydroguaiaretic acid, reference compound]	–	–	–	–	–	–	–	–	93%	–	–	–	–
Cc1c(C)c2c(c(C)c1O)CCC(C)(C(=O)O)O2 (stereo not shown) [Trolox, reference compound]	–	–	–	–	–	–	–	93%	–	73%	91%	–	–
CC(=O)N[C@@H](CS)C(=O)O [NAC, N-acetyl-L-cysteine, reference compound]	0.97 ± 0.16 µM	–	–	4.18 ± 0.52 µM	4.64 ± 1.05 µM	99.1 ± 6.59%	126 ± 5.19%	–	–	–	–	131 ± 4.85%	did not show any neurotoxic effects

Further lines, with some results ahead:

EC50 [2]	IC50 [3]	melting point	EC50 [8]	Structure (SMILES)	IC50 [1]	Emax [1]	Emax [2]	ILPO (%) [4]	DPPH (%) [5]	OH (%) scavenging [6]	ABTS+ (%) [7]	Emax [8]	Neurotoxic effects at basal level (cell viability) [9]
3.69 ± 0.7 µM	28 µM	195 °C (dec.)	–	C/[N+]([O-])=C/Cn1cc(F)c(=O)[nH]c1=O [9c]	~1 µM	148 ± 8.8%	96.1 ± 3.03%	59%	18%	99%	5%	–	–
0.32 ± 0.06 µM	–	–	6.15 ± 0.33 µM	C/[N+]([O-])=C/Cn1ccc(=O)n(C/C=[N+](/C)[O-])c1=O [9h]	17.6 ± 3.33 µM	126 ± 4.27%	127 ± 3.12%	inactive and No	82%	25%	50%	115 ± 6.92%	–
0.28 ± 0.03 µM	33 µM	192 °C (dec.)	–	Cn1c(=O)c2ncn(C/C=[N+](/C)[O-])c2n(C)c1=O [9g]	2.66 ± 1.11 µM	–	83 ± 1.37%	–	15%	49%	8%	105 ± 3.19%	–
0.37 ± 0.04 µM	62.5 µM	–	–	C/[N+]([O-])=C/Cn1ccc(=O)[nH]c1=O [9a]	2.57 ± 0.53 µM	100 ± 4.75%	111 ± 1.46%	62%	20%	no activity and No	19%	–	–
